# Results reported in ChEMBL document CHEMBL1201862, “PubChem BioAssay data set” (2004).
# The source made the active and inactive calls. Cut-off read from the data, not from the text of the source, for most assays here: actives have a measured EC50 and inactives only a lower limit.
# Key:
# [1] = molecular target: T1, Heat shock factor protein 1 (Mus musculus, UniProt P38532); test: HSF1 potentiators in luciferase reporter cells, confirmation, cell-based, NIH3T3, luminescence, dose retest (AID 435004); assay type: functional;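 note: stress induced by proteasome inhibitor MG132 added 30 min after compound; luciferase reporter driven by HSF1 response element in NIH3T3 cells; actives raise luminescence as potentiators of the MG132 stress response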
# T1 sequence (P38532 whole entry): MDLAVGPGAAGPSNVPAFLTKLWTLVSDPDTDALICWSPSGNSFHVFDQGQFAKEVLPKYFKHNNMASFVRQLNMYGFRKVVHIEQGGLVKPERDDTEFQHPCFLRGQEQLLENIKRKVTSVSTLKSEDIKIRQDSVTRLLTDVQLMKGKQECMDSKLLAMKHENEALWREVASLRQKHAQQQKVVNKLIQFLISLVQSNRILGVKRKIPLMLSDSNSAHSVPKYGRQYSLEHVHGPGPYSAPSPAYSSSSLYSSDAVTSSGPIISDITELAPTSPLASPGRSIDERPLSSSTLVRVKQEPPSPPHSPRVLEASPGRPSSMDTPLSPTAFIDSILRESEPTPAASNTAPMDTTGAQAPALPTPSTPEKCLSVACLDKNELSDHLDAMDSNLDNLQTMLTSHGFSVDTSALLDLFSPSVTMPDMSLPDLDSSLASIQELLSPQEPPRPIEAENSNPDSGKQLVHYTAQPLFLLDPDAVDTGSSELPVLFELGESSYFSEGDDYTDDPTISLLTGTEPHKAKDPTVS
# [2] = molecular target: T2, Corticotropin-releasing factor receptor 2/Corticotropin-releasing factor-binding protein (Homo sapiens, UniProt P24387+Q13324); test: activators of CRF receptor 2 with binding protein – uHTS hits, confirmation (AID 602473); assay type: functional; conditions: read-out: EC50_Mean
# T2 sequence (Q13324 whole entry): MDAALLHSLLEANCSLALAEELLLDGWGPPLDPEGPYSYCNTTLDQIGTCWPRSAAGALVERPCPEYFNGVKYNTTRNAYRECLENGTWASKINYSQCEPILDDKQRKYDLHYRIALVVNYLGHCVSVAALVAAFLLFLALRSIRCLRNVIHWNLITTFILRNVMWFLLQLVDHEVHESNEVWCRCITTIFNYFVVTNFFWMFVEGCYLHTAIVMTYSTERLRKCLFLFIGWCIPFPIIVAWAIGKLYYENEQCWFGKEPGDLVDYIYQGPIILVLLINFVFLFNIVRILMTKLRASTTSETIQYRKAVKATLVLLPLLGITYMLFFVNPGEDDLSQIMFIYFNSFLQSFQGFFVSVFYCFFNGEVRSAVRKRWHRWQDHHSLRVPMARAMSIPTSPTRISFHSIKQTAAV
# T2 sequence (P24387 whole entry): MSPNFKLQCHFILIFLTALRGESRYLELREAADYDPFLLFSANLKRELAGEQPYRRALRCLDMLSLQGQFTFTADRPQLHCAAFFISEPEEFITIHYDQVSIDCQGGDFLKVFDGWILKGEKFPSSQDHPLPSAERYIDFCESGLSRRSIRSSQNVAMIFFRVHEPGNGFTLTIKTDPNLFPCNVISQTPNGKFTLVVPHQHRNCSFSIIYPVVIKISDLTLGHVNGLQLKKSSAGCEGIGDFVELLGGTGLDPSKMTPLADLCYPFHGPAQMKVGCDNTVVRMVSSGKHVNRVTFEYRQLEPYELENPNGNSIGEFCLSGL
# [3] = molecular target: T2, Corticotropin-releasing factor receptor 2/Corticotropin-releasing factor-binding protein; test: Dose Response confirmation of uHTS hits for small molecule antagonists of the CRF-binding protein and CRF-R2 receptor complex.; assay type: functional; conditions: read-out: IC50_Mean
# INS1 = test: beta cell apoptosis inhibitors, cytokine rescue, dose response, luminescence, retest (AID 449756); assay type: functional, cell-based; conditions: Rattus norvegicus;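 note: cell death triggered by IL-1 beta plus TNF-alpha plus IFN-gamma mixture; protective hits raise ATP signal compared with cytokine alone wells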
# [4] = molecular target: T3, Replicative DNA helicase DnaB (Mycobacterium tuberculosis, UniProt P9WMR3); test: DnaB intein splicing inhibitors, dose response, biochemical, cell-free fluorescence (AID 449749); assay type: functional
# T3 sequence (P9WMR3 whole entry): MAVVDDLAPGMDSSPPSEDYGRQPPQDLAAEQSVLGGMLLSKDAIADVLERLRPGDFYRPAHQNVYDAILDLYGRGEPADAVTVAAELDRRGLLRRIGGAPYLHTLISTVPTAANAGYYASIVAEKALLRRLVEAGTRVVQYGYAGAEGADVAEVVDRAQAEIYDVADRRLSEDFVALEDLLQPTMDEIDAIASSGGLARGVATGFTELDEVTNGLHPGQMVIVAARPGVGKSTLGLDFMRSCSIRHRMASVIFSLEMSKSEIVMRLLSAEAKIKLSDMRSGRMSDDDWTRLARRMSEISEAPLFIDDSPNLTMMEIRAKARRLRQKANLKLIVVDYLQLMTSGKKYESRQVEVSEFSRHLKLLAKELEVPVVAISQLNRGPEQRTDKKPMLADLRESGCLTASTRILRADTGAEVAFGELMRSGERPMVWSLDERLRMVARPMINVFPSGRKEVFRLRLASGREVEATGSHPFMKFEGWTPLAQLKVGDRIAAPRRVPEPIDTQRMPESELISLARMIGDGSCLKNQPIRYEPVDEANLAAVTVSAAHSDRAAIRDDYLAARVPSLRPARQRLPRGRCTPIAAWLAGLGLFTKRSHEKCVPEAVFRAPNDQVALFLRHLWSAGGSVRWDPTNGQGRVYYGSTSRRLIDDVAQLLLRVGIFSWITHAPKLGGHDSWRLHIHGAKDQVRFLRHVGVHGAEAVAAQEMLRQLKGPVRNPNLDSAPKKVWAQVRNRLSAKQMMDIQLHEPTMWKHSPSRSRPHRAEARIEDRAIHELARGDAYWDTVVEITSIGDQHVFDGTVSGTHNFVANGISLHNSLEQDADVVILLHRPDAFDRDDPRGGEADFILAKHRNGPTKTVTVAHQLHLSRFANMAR
# Protein RecA = molecular target: T4, Protein RecA (Mycobacterium tuberculosis, UniProt P9WHJ3); test: Fluorescence Cell-Free Homogeneous Dose Retest to Identify Inhibitors of RecA-Intein Splicing Activity. [Related pubchem assays (depositor defined):AID2097, AID2223, AID489010, AID492950]; assay type: functional
# T4 sequence (P9WHJ3 whole entry): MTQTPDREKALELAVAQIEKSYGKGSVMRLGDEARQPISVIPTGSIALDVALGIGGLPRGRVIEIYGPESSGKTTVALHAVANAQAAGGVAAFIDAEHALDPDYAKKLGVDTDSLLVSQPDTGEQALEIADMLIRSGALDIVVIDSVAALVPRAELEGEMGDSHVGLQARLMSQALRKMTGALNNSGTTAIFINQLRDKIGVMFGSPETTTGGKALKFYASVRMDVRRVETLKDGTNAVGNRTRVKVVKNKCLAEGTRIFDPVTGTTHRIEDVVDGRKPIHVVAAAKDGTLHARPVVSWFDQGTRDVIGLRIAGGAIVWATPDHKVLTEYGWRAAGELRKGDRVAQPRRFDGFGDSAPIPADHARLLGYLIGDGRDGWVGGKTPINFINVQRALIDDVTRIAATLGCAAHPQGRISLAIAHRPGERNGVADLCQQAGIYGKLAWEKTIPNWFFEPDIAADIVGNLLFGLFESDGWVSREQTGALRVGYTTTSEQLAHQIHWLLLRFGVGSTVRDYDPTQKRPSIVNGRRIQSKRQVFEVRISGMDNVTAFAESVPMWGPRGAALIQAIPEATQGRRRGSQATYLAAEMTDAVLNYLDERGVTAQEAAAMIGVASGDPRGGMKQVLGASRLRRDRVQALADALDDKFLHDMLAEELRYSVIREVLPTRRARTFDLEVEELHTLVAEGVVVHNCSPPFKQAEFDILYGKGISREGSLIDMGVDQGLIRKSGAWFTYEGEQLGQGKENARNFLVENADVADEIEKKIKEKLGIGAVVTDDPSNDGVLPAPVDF
# [5] = inhibitors of intracellular T. cruzi replication, confirmation, NIH3T3 host cells, beta-gal luminescence (AID 2044); assay type: functional, cell-based;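 note: intracellular parasites grown in NIH/3T3 mouse fibroblasts as host cells; luminescent beta-galactosidase reporter signal from transgenic T. cruzi replicating inside host cells; inhibitors lower the luminescence signal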
# [6] = cytotoxicity toward NIH3T3 fibroblasts, dose response, counter-screen, cell-based, ATP luminescence, mouse fibroblasts (AID 2010); assay type: functional;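 note: cells exposed to compound for about 90 hours before reading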
# [7] = tested on: Streptococcus sp. 'group A'; test: growth inhibition of control SK(-) GAS strain, dose response, counter-screen for streptokinase expression inhibitor project, luminescence, kanamycin, BacTiterGlo, confirmation (AID 1900); assay type: functional, organism-based
# Streptococcus = test: Group A Streptococcus viability loss, dose response, counter-screen for streptokinase expression inhibitor project, luminescence, BacTiterGlo (AID 1915); assay type: functional, organism-based;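 note: potency for reduction of bacterial viability or growth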
compound,measurement,setting,value
COc1cc(/C=C/C(=O)OCc2c(C)noc2C)ccc1OC(F)F,EC50,[1],> 260 µM (inactive)
Cc1n[nH]c(=S)n(/N=C/c2cccs2)c1=O,EC50,[2],> 53 µM (inactive)
same,IC50,[3],> 47.1 µM (inactive)
Cn1cccc1/C=N/NC(=O)Cc1cccs1,AC50,INS1,> 260 µM (inactive)
COc1ccc(C(CC(=O)O)c2ccc3c(c2)OCO3)cc1 (stereo unspecified),EC50,[2],> 53 µM (inactive)
same,IC50,[3],> 47.1 µM (inactive)
COC(=O)Nc1ccc(S(=O)(=O)N2CCC(C(=O)N3CCCC(C)C3)CC2)cc1 (stereo unspecified),EC50,[1],> 260 µM (inactive)
Cc1ccccc1Cn1ccc(=NCc2ccccc2)cc1,AC50,INS1,> 260 µM (inactive)
CCC1=Nc2cc(C(=O)NCCN3CCCC3)ccc2Sc2ccccc21,AC50,[4],> 380 µM (inactive)
same,EC50,Protein RecA,> 380 µM (inactive)
O=c1c2ccccc2nc2n1CCS2(=O)=O,AC50,[4],37.2 µM (active)
same,EC50,Protein RecA,12.9 µM (active)
Cn1cnc([N+](=O)[O-])c1Sc1nnc(-c2cccnc2)n1C,AC50,[4],38.1 µM (active)
same,EC50,Protein RecA,13.3 µM (active)
CCOC(=O)NNC(=O)c1[nH]c2ccc(Br)cc2c1-c1ccccc1,EC50,[2],> 53 µM (inactive)
same,IC50,[3],> 47.1 µM (inactive)
N=C(CN1CCCCC1)NS(=O)(=O)c1cc(Cl)cc(Cl)c1,EC50,[2],> 53 µM (inactive)
same,IC50,[3],> 47.1 µM (inactive)
Cc1cc(C)cc(NC(=O)C2CCCN(c3nccc(C)n3)C2)c1 (stereo unspecified),EC50,[2],> 53 µM (inactive)
same,IC50,[3],> 47.1 µM (inactive)
C#CCOCCOCCOCCNc1nc(N2CCN(C(=O)Cn3cc(CCO)nn3)CC2)nc(N2CCN(C(=O)[C@H](CCCCN)n3cc(CC(C)O)nn3)CC2)n1 (stereo partly specified),EC50,[2],> 53 µM (inactive)
same,IC50,[3],> 47.1 µM (inactive)
CN(C)C(=O)c1ccc(=O)n(Cc2ccc(Cl)cc2Cl)c1,EC50,[1],> 260 µM (inactive)
COc1ccc(CCNc2oc(-c3ccccc3OC)nc2C#N)cc1,EC50,[1],> 260 µM (inactive)
Cc1n[nH]c2c1C1(CCN(C(=O)OCc3ccccc3)CC1)C(C#N)=C(N)O2,AC50,[4],13.5 µM (active)
same,EC50,Protein RecA,1.59 µM (active)
COc1cccc(N(CC(=O)N2CCc3ccccc3C2)S(C)(=O)=O)c1,EC50,[1],> 260 µM (inactive)
O=C(O)c1ccc(N(Cc2ccccc2)S(=O)(=O)c2ccccc2)cc1,EC50,[1],> 260 µM (inactive)
Cc1oc(-c2ccccc2Cl)nc1CN1C(=O)CN=C(c2ccccc2)c2ccccc21,EC50,[1],> 260 µM (inactive)
COc1cc(CNC2CCCC2)cc(OC)c1,EC50,[1],> 260 µM (inactive)
Nc1ccc2nc(N3CCOCC3)sc2c1,AC50,[4],93.7 µM (active)
same,EC50,[5],1.96 µM (active)
same,EC50,Protein RecA,23.7 µM (active)
same,EC50,[6],5.16 µM (active)
O=C(NC(=S)N1CCN(C/C=C/c2ccccc2)CC1)c1ccc(Cl)nc1,EC50,[1],> 260 µM (inactive)
Cc1cc2[nH]ncc2cc1NC(=S)NC(=O)c1ccccc1,AC50,[4],178 µM (active)
same,EC50,Protein RecA,> 380 µM (inactive)
O=c1c2cc(N3CCOCC3)ccc2[nH]c(=S)n1Cc1ccccn1,EC50,[1],> 260 µM (inactive)
Fc1ccc(C2NC(S)=NC3=C2N2CCC3CC2)cc1 (stereo unspecified),EC50,[1],> 260 µM (inactive)
CC(C)c1n[nH]c2c1C(Cc1ccccc1)C(C#N)=C(N)O2 (stereo unspecified),AC50,[4],38.7 µM (active)
same,EC50,Protein RecA,8.67 µM (active)
CC1=NNC(=O)C1C(c1ccc(F)cc1)C(C#N)C#N (stereo unspecified),AC50,[4],7.09 µM (active)
same,EC50,Protein RecA,2.83 µM (active)
O=C(Nc1cc([N+](=O)[O-])ccc1O)c1cccc(NC(=O)c2ccco2)c1,EC50,[7],5.58 µM (active)
same,EC50,Streptococcus,6.8 µM (active)
O=[N+]([O-])c1ccc(Oc2cccc(Br)c2)c2ccncc12,AC50,[4],> 380 µM (inactive)
same,EC50,Protein RecA,1.17 µM (active)
NCCCCCc1nnc(SC/C=C/c2ccccc2)o1,EC50,[1],> 260 µM (inactive)
COc1ccc(CN(C)C(=O)c2ccc(NS(=O)(=O)c3ccc(F)cc3)cc2)c(OC)c1OC,AC50,INS1,> 260 µM (inactive)
Cc1ccc(N2C(=O)SC(N(CC(=O)O)c3ccc(C)cc3)C2=O)cc1 (stereo unspecified),EC50,[1],> 260 µM (inactive)
CC(NC(=O)CCCN1C(=O)c2ccccc2C1=O)c1ccc2c(c1)CCCC2 (stereo unspecified),EC50,[1],> 260 µM (inactive)
